Read-outs that look alike come from different tables or passages of the source. Ends that are not written are not given here.
How the values were obtained:
P. aeruginosa = assay: MIC test (broth microdilution) / antimicrobial activity, P. aeruginosa; format: cell-based, Pseudomonas aeruginosa
Description: (§1) The active AMPs, STAMPs and the like can be identified and/or validated using an in vitro screening assay.
(§2) It will be appreciated that other assays as are well known in the art or that will become apparent to those having skill in the art upon review of this disclosure may also be used to identify active AMPs. Such assays include, for example, the assay described in Lehrer et al. (1988) J. Immunol.
(§3) Peptides were evaluated for basic antimicrobial activity by broth microdilution, as described previously (Eckert et al. (2006) Antimicrob Agents Chemother., 50: 3651-3657; Eckert et al. (2006) Antimicrob Agents Chemother., 50: 1480-1488). Briefly, ˜1×10^5 cfu/mL bacteria were diluted in TH (S. mutans), or Mueller-Hinton (MH) broth (all other organisms) and distributed to 96-well plates. Serially-diluted (2-fold) peptides were then added and the plates incubated at 37° C. for 18-24 h. […] All experiments were conducted 10 times.

MRSA = assay: MIC test / antimicrobial activity, MRSA; format: cell-based, Methicillin-resistant Staphylococcus aureus
Description: as §1, §2, §3

T. rubrum = assay: MIC test / antimicrobial activity, T. rubrum; format: cell-based, Trichophyton rubrum
Description: as §1, §2, §3

A. niger = assay: MIC test / antimicrobial activity, A. niger; format: cell-based, Aspergillus niger
Description: as §1, §2, §3

B. subtilis = assay: MIC test / antimicrobial activity, B. subtilis; format: cell-based, Bacillus subtilis
Description: as §1, §2, §3

C. jeikeium = assay: MIC test / antimicrobial activity, C. jeikeium; format: cell-based, Corynebacterium jeikeium
Description: as §1, §2, §3

S. epidermidis = assay: MIC test (broth microdilution) / antimicrobial activity, S. epidermidis; format: cell-based, Staphylococcus epidermidis
Description: as §1, §2, §3

microorganisms [1] = assay: Peptide activities: targeting/binding, antimicrobial, growth or phenotype altering (Tables 7, 8); format: cell-based; settings: peptides having multiple activities
microorganisms [2] = assay: Morphology, biofilm and growth disrupting peptides (Table 5); format: cell-based; parameters: key: A: Peptide aggregates; B: Less hyphal formation; Clumps; Diffuse clumps and small polyps; F: Diffuse growth; H: Thin; I: Growth inhibition; Microcolony formation; Rippled; Small polyps; Thick; W: Halo formation on top, microlonies on bottom
From the text: In certain embodiments peptides that induce alterations in phenotype or other biological activities can also be used as antimicrobial effector moieties.

S. mutans [3] = assay: Anti-S. mutans STAMP activity in vitro, incl. formulations; format: cell-based, Streptococcus mutans
From the text: During the course of evaluating STAMPs, antimicrobial peptides (AMPs), and binding peptides for desired activity, it was discovered that certain formulations can attenuate or promote peptide activity, as compared to activity levels in a default buffer system (1×PBS). In some cases, 1×PBS may provide the best level of activity. Below are a number of formulations that alter, or may alter, peptide or STAMP activity. For complex buffer systems, assume the base solvent is water unless otherwise stated.
All show potent selective activity against their bacterial targets in vitro, including against biofilm forms. When tested, STAMPs have little cytotoxicity against cell lines in vitro.
It was a surprising discovery that certain anti-S. mutans STAMPs required a salt in the formulation (e.g., PBS) for optimum activity. […] Suitable PBS formulations ranged from 0.5×PBS to about 2.5×PBS with an activity optimum at about 1×PBS. Similar results are believed to obtain for other anti-S. mutans STAMPS as well as a number of other STAMPs. In certain embodiments STAMP stability in solution was improved by inclusion of fluoride in mouthrinse.

E. coli = assay: MIC test (broth microdilution) / antimicrobial activity, E. coli; format: cell-based, Escherichia coli
Description: as §1, §2, §3

S. pneumoniae = assay: MIC test / antimicrobial activity, S. pneumoniae; format: cell-based, Streptococcus pneumoniae
Description: as §1, §2, §3

S. mutans [4] = assay: MIC test (broth microdilution) / antimicrobial activity, S. mutans; format: cell-based, Streptococcus mutans
Description: as §1, §2, §3

A. baumannii = assay: MIC test / antimicrobial activity, A. baumannii; format: cell-based, Acinetobacter baumannii
Description: as §1, §2, §3

C. difficile = assay: MIC test / antimicrobial activity, C. difficile; format: cell-based, Clostridium difficile
Description: as §1, §2, §3

| Substance | Organism MIC (μM) (T. rubrum) | Organism MIC (μM) (A. niger) | Organism MIC (μM) (C. jeikeium) | Activities (microorganisms [1]) | Organism, effect (microorganisms [2]; M. luteus) | Organism, effect (microorganisms [2]; MRSA) | Organism, effect (microorganisms [2]; P. aeruginosa) | Organism, effect (microorganisms [2]; S. epidermidis) | Organism, effect (microorganisms [2]; S. pneumoniae) | Organism, effect (microorganisms [2]; E. coli) | also measured |
| --- | --- | --- | --- | --- | --- | --- | --- | --- | --- | --- | --- |
| GSVIKKRRKRMAKKKHRKLLKKTRIQRRRAGK [PF-527] | T. rubrum, 25 μM | A. niger, 50 μM | C. jeikeium, 6.25 μM | G B M | M. luteus (S) | MRSA (I) | P. aeruginosa (I) | S. epidermidis (M) | S. pneumoniae (H) | – | Organism MIC (μM) (P. aeruginosa): P. aeruginosa, 50 μM; Organism MIC (μM) (MRSA): MRSA, 50 μM; Organism MIC (μM) (B. subtilis): B. subtilis, 12.5 μM; Organism MIC (μM) (S. epidermidis): S. epidermidis, 25 μM; Organism, effect (microorganisms [2]; B. subtilis): B. subtilis (I); Organism, effect (microorganisms [2]; C. albicans): C. albicans (B); Organism, effect (microorganisms [2]; C. jeikeium): C. jeikeium (I); Organism, effect (microorganisms [2]; C. jejuni): C. jejuni (M) |
| TFFRLFNRSFTQALGKGGGKNLRIIRKGIHIIKKY* [C16G2] | – | – | – | – | – | – | – | – | – | – | STAMP activity in formulation (S. mutans [3]; phosphate buffered saline (PBS) formulation, 0.5×PBS to about 2.5×PBS, optimum at about 1×PBS): active; STAMP activity in formulation (S. mutans [3]; water-based salt-free buffers and nanoemulsions): substantially inactive |
| TKKIELKRFVDAFVKKSYENYILERELKKLIKAINEELPTK [PF-600] | – | – | – | G B M | M. luteus (C) | MRSA (M) | – | S. epidermidis (C) | S. pneumoniae (R) | E. coli (H) | Organism MIC (μM) (E. coli): E. coli, 50 μM; Organism MIC (μM) (S. pneumoniae): S. pneumoniae, 50 μM; Organism, effect (microorganisms [2]; S. mutans): S. mutans (S) |
| YIQFHLNQQPRPKVKKIKIFL-NH2 [PF-531] | T. rubrum, 50 μM | A. niger, 25 μM | C. jeikeium, 6.25 μM | G M | – | – | P. aeruginosa (I) | S. epidermidis (I) | S. pneumoniae (C) | E. coli (M) | Organism MIC (μM) (S. mutans [4]): S. mutans, 12.5 μM; Organism MIC (μM) (P. aeruginosa; P. aeruginosa): P. aeruginosa, 50 μM; Organism MIC (μM) (A. baumannii): A. baumannii, 25 μM; Organism MIC (μM) (B. subtilis; B. subtilis): B. subtilis, 25 μM; Organism MIC (μM) (C. difficile): C. difficile, 12.5 μM; Organism MIC (μM) (S. epidermidis; S. epidermidis): S. epidermidis, 50 μM |

— patent US20110039763A1, “TARGETED ANTIMICROBIAL MOIETIES” (C3 JIAN, INC., priority 2009, published 2011)
